For one series, the target named is α5β1 integrin (Homo sapiens, UniProt P05556+P08648). Kind of series: Competition of 125I-echistatin to detergent-solubilized plate-coated integrin. Type of series: binding. The note with it: 0.06 nM 125I echistatin, 5 nM and 50 nM peptide. On the procedure:
(§1) FIG. 10A through FIG. 10D is a series of histograms showing binding specificities to integrins αvβ3, αvβ5, α5β1, and αiibβ3 for engineered EETI-RGD peptides compared to controls. Error bars represent experiments performed in triplicate. Competition binding of 0.06 nM ^125I echistatin with 5 nM (black bars) and 50 nM (grey bars) unlabeled peptide to plate-coated integrins was measured. […] The engineered peptides have very little binding to αiibβ3 integrin.
(§2) This was done by competition of ^125I-echistatin to detergent-solubilized integrin receptors coated onto microtiter plates (see FIG. 10). […] This is consistent with previous studies which have shown αv integrin receptors can accommodate a wide range of RGD-containing cyclic structures. […] However, since α5β1 integrins are expressed on many tumors and are all involved in mediating angiogenesis and metastasis, a broad spectrum agent that targets all three integrins will be useful for diagnostic and therapeutic applications. With the exception of echistatin, all of the RGD-containing peptides bound weakly to the αiibβ3 receptor, showing the specificity of the present peptides for the αv and α5-containing integrin heterodimers. This characteristic is valuable for molecular imaging and therapeutic applications, since binding to αiibβ3 on platelet cells prevents blood clotting and would lead to non-specific in vivo effects.

For a further series, the target named is αvβ3 integrin (Homo sapiens, UniProt P05106+P06756). The series is described as above. Type of series: binding. The note with it: 0.06 nM 125I echistatin, 5 nM and 50 nM peptide. The procedure:
as §1, §2

Another series addresses αvβ5 integrin (Homo sapiens, UniProt P06756+P18084). The description is as above. The format is binding. Particulars: 0.06 nM 125I echistatin, 5 nM and 50 nM peptide. On the procedure: as §1, §2
Series [1] concerns U87MG glioblastoma cells. Description: Blocking of U87MG cell adhesion to vitronectin-coated plates. The format is cell-based. Particulars: vitronectin-coated plates. From the text:
(§3) The present engineered peptides may be used in a variety of ways. If the peptides are attached to a surface, they may be used to attract/recruit cells to grow on the surface. For example, the present peptides may be applied to prosthetic devices, implants, bone grafts, and the like to promote tissue growth and healing at the site. They may be attached to culture dishes and promote attachment and differentiation of cells in culture. In addition, the present engineered peptides may be used to modulate cell binding to selected integrins such as α5β1, αvβ3 and αvβ5, particularly αvβ3, by adding the peptides to a cell culture to prevent cells expressing these integrins from adhering to a substrate. […] Also, the present 2.5F, 2.5D and 1.5B peptides were tested for blocking adhesion of U87MG glioblastoma cells to fibronectin-coated plates.
(§4) In another experiment, the ability of engineered knottin peptides to block U87MG cell adhesion to vitronectin- and fibronectin-coated microtiter plates. Vitronectin is a natural ligand for several integrins, including αvβ3 and αvβ5. The RGD-containing peptides were all able to inhibit U87MG cell adhesion to vitronectin-coated plates in a dose-responsive manner. […] Fibronectin also binds to several integrins, (including αvβ3 and α5β1), but the α5β1 integrin receptor is generally selective for fibronectin.
Whether the engineered AgRP peptides could block vitronectin-mediated adhesion to the U87MG cells was tested using an analogous assay. […] The AgRP peptides may not effectively block U87MG adhesion compared to the K562-αvβ3 cells because the αvβ5 integrins co-expressed on the surface of the U87MG cells could also contribute to vitronectin-mediated adhesion and compensate for the loss of αvβ3 integrin function.

The subject of series [2] is U87MG glioblastoma cells. Description: Blocking of U87MG cell adhesion to fibronectin-coated plates. Type of series: cell-based.
From the text: as §3, §4

A short description of series [3]: Stability in human serum at 37° C., reversed-phase HPLC. The format is in vitro ADME. On the procedure:
(§5) The stability of the knottin peptide 2.5D upon exposure to human or mouse serum at 37° C. was measured. Reversed-phase HPLC was used to quantify the amount of intact knottin peptide remaining at various times post incubation.
Nonradioactive mock-PET tracers are incubated with mouse and human serum for various time points at 37° C., and aliquots are acidified and flash frozen. The aliquots are then thawed and microcentrifuged at high speeds to remove aggregates. The soluble fraction is passed through a Sep-Pak C18 cartridge (Waters Corp), and rinsed several times with water containing 0.1% TFA (solvent A). The cartridge-bound PET-tracers are eluted with 90% acetonitrile containing 0.1% TFA, lyophilized, and resuspended in solvent A. The solution is passed through a NANOSEP (Pall Corp) 10 kDa cutoff filter and analyzed by reversed-phase HPLC to determine the amount of polypeptide-conjugate remaining.

A short description of a further series: in vitro. The note with it: mouse serum, 37° C., read-out: peptide remaining. Type of series: in vitro ADME.
From the text: Their larger size (˜3-4 kDa) and enhanced affinity compared to RGD-based cyclic peptides confer enhanced pharmacokinetics and biodistribution for molecular imaging and therapeutic applications. This is described in connection with FIG. 8. These RGD-miniproteins are small enough to allow for chemical synthesis and site-specific conjugation of imaging probes, radioisotopes, or chemotherapeutic agents. Furthermore, they can easily be chemically modified to further improve in vivo properties if necessary. […] The tumor is indicated by an arrow. The near infrared fluorescent Cy5.5 label study provides guidance for the preparation of these polypeptides as ^18F and ^64Cu-labeled PET imaging probes. […]
as §5
Nonradioactive mock-PET tracers are incubated with mouse and human serum for various time points at 37° C., and aliquots are acidified and flash frozen. […] The cartridge-bound PET-tracers are eluted with 90% acetonitrile containing 0.1% TFA, lyophilized, and resuspended in solvent A. The solution is passed through a NANOSEP (Pall Corp) 10 kDa cutoff filter and analyzed by reversed-phase HPLC to determine the amount of polypeptide-conjugate remaining.

The next series concerns U87MG tumor. Description: MicroPET imaging and biodistribution of radiolabeled peptides in U87MG tumor-bearing mice. The format is in vivo, mouse. Particulars: 64Cu-DOTA-labeled peptides, compared to 64Cu-DOTA-c(RGDyK). The procedure:
MicroPET imaging of tumor-bearing mice is performed on a microPET R4 rodent model scanner (Concorde Microsystems Inc, Knoxyille, Tenn.). U87MG tumor bearing mice are injected with PET imaging agent via the tail vein. At various times post injection, the mice are anesthetized with 2% isoflurane, and 10 min static scans are obtained. Images are reconstructed by a two-dimensional ordered expectation maximum subset algorithm as previously described. Regions of interest (ROI) are drawn over the tumor on decay corrected whole body images and ROI derived % injected dose per gram of tissue is determined. Statistical analysis is performed using the student's t-test for unpaired data. A 95% confidence level is used to determine statistical significance.
Female athymic mice bearing U87MG tumors were injected with 80-150 μCi of ^64Cu-DOTA-knottin 2.5D or 7-9 μCi of [^18F]-FB-E[knottin 2.5D]. Static images were taken at various timepoints post injection using a microPET R4 rodent model scanner (Concorde Microsystems Inc, Knoxyille, Tenn.). […] Uptake was also observed in the kidney as both probes cleared through the bladder.
Mice are sacrificed by exanguinations at various time points postinjection. Blood, tumor and the major organs and tissues are collected, wet-weighed and measured in a γ-counter. The % injected dose per gram is determined for each sample. For each mouse, radioactivity of the tissue samples is calibrated against a known aliquot of the injectate. Values are reported as the mean±standard deviation.
The following Table 10 quantifies the ^64Cu-DOTA knottin uptake by direct tissue sampling of the mice up to 24 hours post injection and is reported in % ID (percent injected dose)/gram. Similar results were obtained with [^18F]-FB-E[knottin 2.5D].
A U87MG glioblastoma xenograft mouse model was used. U87MG cells were maintained at 37° C. in a humidified atmosphere containing 5% CO2 in Dulbecco's modified eagle medium, 10% heat-inactivated fetal bovine serum, and penicillin-streptomycin (all from Invitrogen). Animal procedures were carried out according to a protocol by Stanford University Administrative Panels on Laboratory Animal Care. Female athymic nude mice (nu/nu), obtained at 4-6 weeks of age (Charles River Laboratories, Inc.), were injected subcutaneously in the right or left shoulder with 2×10^7 U87MG glioblastoma cells suspended in 100 μL of PBS. Mice were used for in vivo imaging studies when their tumors reached approximately 8 to 10 millimeters in diameter.
U87MG tumor-bearing mice (n=3 or more for each probe) were injected with ˜100 μCi of ^64Cu-DOTA-conjugated peptides via the tail vein and imaged with a microPET R4 rodent model scanner (Siemens Medical) using 3 or 5 min static scans. […] Images were reconstructed by a two dimensional ordered expectation maximum subset algorithm and calibrated as previously described (Wu, Y, Zhang, X, Xiong, Z, et al. microPET imaging of glioma integrin {alpha}v{beta}3 expression using (64)Cu-labeled tetrameric RGD peptide. J Nucl Med 2005; 46:1707-18). ROIs were drawn over the tumor on decay-corrected whole body images using ASIPro VM software (Siemens Medical). The mean counts per pixel per minute were obtained from the ROI and converted to counts per milliliter per minute with a calibration constant. ROIs were converted to counts/g/min, and % ID/g values were determined assuming a tissue density of 1 g/mL. No attenuation correction was performed.

In the next series the test system is αvβ3 and αvβ5 integrins. Particulars: inhibiting cell adhesion mediated by αvβ3 and αvβ5 integrins; cited from earlier work.
The next series concerns α5β1 expressing cells. Particulars: inhibiting attachment of α5β1 expressing cells to fibronectin; cited from earlier work.
In series [4] the target is T1, αvβ3 integrin on U87MG glioblastoma cells (Homo sapiens, UniProt P05106+P06756).
T1 construct: host or cells: U87MG glioblastoma cells
Kind of series: 125I-echistatin competition binding to U87MG glioblastoma cells. The procedure: FIG. 9 is a graph showing normalized competition plotted against peptide concentration in an integrin-binding assay on U87MG glioblastoma cells.
U87MG glioblastoma cells, which express ˜10^5 αvβ3 integrin receptors per cell, were used for these studies. […] An EETI-based polypeptide with a scrambled RDG amino acid sequence, designated FN-RDG, served as a negative control.
Half-maximal inhibitory concentrations (IC50) […] of data measured on at least three separate days. Data for unlabeled and Cy5.5-labeled peptides are shown. Site-specific labeling of RGD miniproteins with a near-infrared optical imaging probe: The free N-terminal amine of our polypeptides was used for site-specific attachment of Cy5.5, a near infrared imaging probe.
An αvβ3 integrin receptor binding assay is performed to determine the relative affinities of the mock-PET tracers compared to their unlabeled polypeptides. Briefly, 2×10^5 U87MG glioblastoma cells are incubated with 0.06 nM ^125I-echistatin in integrin binding buffer (25 mM Tris-HCl, pH 7.4, 150 mM NaCl2 1 mM CaCl2 1 mM MgCl2, 1 mM MnCl2, 0.1% BSA), in the presence of increasing concentrations of mock-PET tracers at room temperature. After incubation for 3 h, cells are pelleted by centrifugation at 1500 RPM and washed three times in binding buffer to remove unbound ligands. The radioactivity remaining in the cell pellet is measured by γ counting. IC50 values are determined by plotting the % competition and using a four-point binding equation (Kaleidagraph) to fit the data.

Another series concerns the target αiibβ3 integrin (Homo sapiens, UniProt P05106+P08514). Kind of series: Competition of 125I-echistatin to detergent-solubilized plate-coated integrin. The format is binding. Particulars: 0.06 nM 125I echistatin, 5 nM and 50 nM peptide. The procedure:
as §1, §2

The subject of series [5] is fibronectin cell adhesion. The note with it: cited from earlier work.

No end group written: not given here.

Regarding `CC(C)[C@@H]1NC(=O)[C@@H]2CSSC[C@H](NC(=O)CN)C(=O)N3CCC[C@H]3C(=O)N[C@@H](CCC(N)=O)C(=O)NCC(=O)N[C@@H](CCCNC(=N)N)C(=O)NCC(=O)N[C@@H](CC(=O)O)C(=O)N[C@@H](Cc3c[nH]c4ccccc34)C(=O)N[C@@H](C)C(=O)N3CCC[C@H]3C(=O)N[C@@H]([C@@H](C)O)C(=O)N[C@@H](CO)C(=O)N[C@H]3CSSC[C@H](NC1=O)C(=O)NCC(=O)N1CCC[C@H]1C(=O)N[C@@H](CC(N)=O)C(=O)NCC(=O)N[C@@H](Cc1ccccc1)C(=O)N[C@H](C(=O)NCC(=O)O)CSSC[C@H](NC(=O)[C@H](CC(=O)O)NC(=O)[C@H](CO)NC(=O)[C@H](CC(=O)O)NC(=O)[C@H](CCC(N)=O)NC(=O)[C@H](CO)NC3=O)C(=O)N[C@@H](CCCNC(=N)N)C(=O)N[C@@H](C)C(=O)NCC(=O)N2` [2.5D], the “binding to α5β1 integrin, in words” value on α5β1 integrin is reported as “only minimal binding”. On αvβ3 integrin, the “binding to αvβ3 integrin, in words” value was “strongest levels of binding”. Also, the “binding to αvβ5 integrin, in words” value at αvβ5 integrin is listed as “strongest levels of binding”. For the same compound, the “blocking of U87MG cell adhesion to vitronectin, in words” value with U87MG glioblastoma cells [1] is “blocked adhesion better than controls”. Further, the “blocking of U87MG cell adhesion to fibronectin, in words” value in the series on U87MG glioblastoma cells [2] was “only echistatin and polypeptide 2.5F blocked adhesion”. The share remaining (commonly what is left of the initial amount, in per cent) at 24 h is approximately 90% in series [3] (24 h, read-out: peptide remaining) and approximately 90% in the series “in vitro” (24 h). In series [3] (96 h), the peptide remaining result was “approximately 70%”. Besides, the amount remaining at 96 h in the series “in vitro” (96 h) was approximately 70%. In addition, the “liver uptake, in words” value in the series on U87MG tumor was “lower liver uptake”.
With “ACDCRGDCFCG (disulfide (positions not given here); also: two disulfide bonds, pairing not given here)”, in the series on αvβ3 and αvβ5 integrins, the “fold more effective than comparable peptides with one disulfide bond” value is recorded as 20 fold and the “fold more potent than linear RGD peptides” value is 200 fold.
Turning to CRGDCL (also: cyclic), in the series with α5β1 expressing cells, the “fold more potent than linear RGD hexapeptides” value was 10 fold.
For the compound “FN-RDG: EETI-based polypeptide with a scrambled RDG amino acid sequence, negative control (GCVTGRDGSPASSCSQDSDCLAGCVCGPNGFCG)”, in series [4], the “binding to U87MG cells / competition with 125I-echistatin, in words” value is reported as “not able to compete”. Besides, the “binding to α5β1 integrin, in words” value with α5β1 integrin was “did not bind”. In the series with αiibβ3 integrin, the “binding to αiibβ3 integrin, in words” value is listed as “did not bind”. For the same compound, the “binding to αvβ3 integrin, in words” value with αvβ3 integrin is given as “did not bind”. Also, the “binding to αvβ5 integrin, in words” value in the series with αvβ5 integrin is reported as “did not bind”. The “blocking of U87MG cell adhesion to vitronectin, in words” value in the series on U87MG glioblastoma cells [1] is recorded as “not able to inhibit”. Further, in the series on U87MG glioblastoma cells [2], the “blocking of U87MG cell adhesion to fibronectin, in words” value was “not able to inhibit”.
As for GRGD, the IC50 (usually the concentration that inhibits the measured activity by half) in series [5] was 1080 µM.

The values above are taken from patent publication US9265845B2, “Imaging methods using engineered integrin binding peptides” (The Board of Trustees of the Leland Stanford Junior …, priority 2006, dated 2016).
